One compound from BindingDB's records for doi:10.1124/mol.62.4.947 (National Cancer Institute-Bethesda, 2002) can be followed below.

This assay addresses Transient receptor potential cation channel subfamily V member 1 (Rattus norvegicus, UniProt O35433).

Chain of Transient receptor potential cation channel subfamily V member 1 (O35433 whole entry): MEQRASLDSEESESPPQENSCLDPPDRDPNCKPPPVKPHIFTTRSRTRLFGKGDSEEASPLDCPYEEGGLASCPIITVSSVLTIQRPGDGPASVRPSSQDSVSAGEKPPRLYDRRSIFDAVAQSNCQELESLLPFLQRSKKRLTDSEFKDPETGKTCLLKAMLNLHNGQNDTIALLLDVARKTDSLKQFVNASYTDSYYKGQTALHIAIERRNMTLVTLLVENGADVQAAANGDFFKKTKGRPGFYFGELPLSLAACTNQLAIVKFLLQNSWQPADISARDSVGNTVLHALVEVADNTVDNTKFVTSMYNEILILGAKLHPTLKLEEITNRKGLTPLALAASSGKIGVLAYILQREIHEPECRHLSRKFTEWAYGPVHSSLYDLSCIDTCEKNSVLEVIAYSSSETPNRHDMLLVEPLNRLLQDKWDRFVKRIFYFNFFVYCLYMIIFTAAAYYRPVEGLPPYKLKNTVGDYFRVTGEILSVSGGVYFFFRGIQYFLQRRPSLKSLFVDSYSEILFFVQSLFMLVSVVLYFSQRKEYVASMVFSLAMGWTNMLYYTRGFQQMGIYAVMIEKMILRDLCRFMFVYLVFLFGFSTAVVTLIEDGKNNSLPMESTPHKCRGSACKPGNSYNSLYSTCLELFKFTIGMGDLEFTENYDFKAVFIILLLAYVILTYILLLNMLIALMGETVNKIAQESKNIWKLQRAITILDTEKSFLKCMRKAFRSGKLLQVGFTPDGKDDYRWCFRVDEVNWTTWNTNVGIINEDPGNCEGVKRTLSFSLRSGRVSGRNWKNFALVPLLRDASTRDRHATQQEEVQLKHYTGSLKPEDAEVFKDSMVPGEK

The term Ki denotes the equilibrium dissociation constant of an inhibitor or competing ligand from its target. Lower therefore signals tighter binding. For the compound `CC(C)(C)c1ccc(CNC(=S)NCc2ccc(NS(C)(=O)=O)c(F)c2)cc1` [JYL1421], the Ki was 9.2 nM.
